Patent publication US5635593A (priority 1995, dated 1997)
Peptide text beside a SMILES is read from it.

Experiments:
BK2 receptor [1] = target: T1, BK2 receptor (Cavia porcellus, UniProt O70526); experiment: guinea-pig ileum (GPI) in vitro, antagonism of BK
T1 construct: tested for activity on guinea pig ileum in vitro on the standard tissue bath/strain gauge system; from tissue; host or cells: guinea pig ileum
T1 sequence (O70526 1-372): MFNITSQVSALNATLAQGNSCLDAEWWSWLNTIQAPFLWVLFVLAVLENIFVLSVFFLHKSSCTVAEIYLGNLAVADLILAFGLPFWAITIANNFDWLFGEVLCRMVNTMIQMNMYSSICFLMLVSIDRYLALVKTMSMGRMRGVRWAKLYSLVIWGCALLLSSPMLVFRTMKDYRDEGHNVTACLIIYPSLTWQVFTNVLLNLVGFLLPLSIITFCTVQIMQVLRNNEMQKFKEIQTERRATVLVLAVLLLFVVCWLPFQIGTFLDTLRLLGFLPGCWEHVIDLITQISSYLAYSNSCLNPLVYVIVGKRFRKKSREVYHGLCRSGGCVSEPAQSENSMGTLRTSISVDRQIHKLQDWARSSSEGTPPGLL
Method: (§1) Thus, in vitro studies were performed on standard assay systems, namely, guinea-pig ileum (GPI), rat uterus (RU) and rabbit jugular vein (RJV). […] The potency of each compound was assessed as a pA2 value according to the method of Arunlakshana & Schild, Br. J. Pharmacol. Chemother., 14:48-58 (1959). The pA2 can be defined as the negative logarithm of the molar concentration of the antagonist in the presence of which the potency of the agonist is reduced two-fold, i.e., twice the amount of agonist is required to produce a given response in the presence of, than in the absence of, the antagonist. A high potency of antagonism is indicated by a high pA2 value. i.e., a low concentration of antagonist is effective.
The percentage recovery (% Rec) was also determined for compounds with respect to each assay.
The Cys-modified monomers and the resultant dimers were tested for activity on guinea pig ileum in vitro on the standard tissue bath/strain gauge system as before.

BK2 -receptor = target: T2, BK2 -receptor (Rattus norvegicus, UniProt P25023); experiment: rat uterus (RU) in vitro, antagonism of BK; conditions: percentage recovery after washing
T2 construct: guinea-pig ileum (GPI), rat uterus (RU) and rabbit jugular vein (RJV); from tissue; host or cells: rat uterus
T2 sequence (P25023 1-396): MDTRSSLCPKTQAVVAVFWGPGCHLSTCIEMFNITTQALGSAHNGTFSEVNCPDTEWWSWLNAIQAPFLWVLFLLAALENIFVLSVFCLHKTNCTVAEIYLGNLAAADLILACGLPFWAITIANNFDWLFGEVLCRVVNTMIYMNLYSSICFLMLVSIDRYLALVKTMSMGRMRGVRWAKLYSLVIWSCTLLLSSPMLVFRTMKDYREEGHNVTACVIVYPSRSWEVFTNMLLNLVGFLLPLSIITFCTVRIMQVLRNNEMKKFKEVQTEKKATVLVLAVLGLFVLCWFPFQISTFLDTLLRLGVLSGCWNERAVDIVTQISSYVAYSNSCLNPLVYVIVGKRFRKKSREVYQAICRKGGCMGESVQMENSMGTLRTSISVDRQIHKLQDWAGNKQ

BK2 receptor [2] = target: T3, BK2 receptor (Oryctolagus cuniculus, UniProt Q28642); experiment: rabbit jugular vein (RJV) in vitro, antagonism of BK; conditions: percentage recovery after washing
T3 construct: from tissue; host or cells: whole animal (rabbit, LPS-pretreated), blood pressure response
T3 sequence (Q28642 1-367): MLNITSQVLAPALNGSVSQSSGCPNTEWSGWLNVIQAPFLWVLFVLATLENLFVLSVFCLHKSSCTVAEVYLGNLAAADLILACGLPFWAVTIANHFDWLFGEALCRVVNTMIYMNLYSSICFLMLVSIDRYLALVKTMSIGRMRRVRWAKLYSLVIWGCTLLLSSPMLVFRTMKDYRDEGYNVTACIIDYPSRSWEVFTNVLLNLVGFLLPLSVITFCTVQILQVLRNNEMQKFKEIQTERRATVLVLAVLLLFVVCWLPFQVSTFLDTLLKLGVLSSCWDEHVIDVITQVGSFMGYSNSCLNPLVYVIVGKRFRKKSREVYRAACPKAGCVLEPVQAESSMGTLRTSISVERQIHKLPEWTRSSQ
Method: as §1
The percentage recovery (% Rec) was also determined for compounds with respect to each assay. Percentage recovery is a measure of the duration of action, the lower the percentage recovery value, the greater the duration of action of the compound.

[3] = tested on: blood pressure responses to BK; assay type: in vivo; conditions: anaesthetized rat, dose response curve n=10

Compound	Kb (BK2 receptor [1]; against BK, read-out: pA2 guinea pig ileum (converted)) [nM]	% REC rat uterus (BK2 -receptor) [%]	pA2 guinea pig ileum (BK2 receptor [1]; against BK)	% REC GPI (BK2 receptor [1]; percentage recovery after washing) [%]	% REC RJV (BK2 receptor [2]) [%]	ED50 of BK, blood pressure [3] [nmol]
CC(C)C[C@H](NC(=O)[C@@H](Cc1ccccc1)NC(=O)[C@H](CO)NC(=O)[C@H](Cc1ccccc1)NC(=O)CNC(=O)[C@@H]1C[C@@H](O)CN1C(=O)[C@@H]1CCCN1C(=O)[C@H](CCCNC(=N)N)NC(=O)[C@H](N)CSC1CC(=O)N(CCCCCCN2C(=O)CC(SC[C@@H](N)C(=O)N[C@@H](CCCNC(=N)N)C(=O)N3CCC[C@H]3C(=O)N3C[C@H](O)C[C@H]3C(=O)NCC(=O)N[C@@H](Cc3ccccc3)C(=O)N[C@@H](CO)C(=O)N[C@H](Cc3ccccc3)C(=O)N[C@@H](CC(C)C)C(=O)N[C@@H](CCCNC(=N)N)C(=O)O)C2=O)C1=O)C(=O)N[C@@H](CCCNC(=N)N)C(=O)O (stereo partly shown) [CP-0161] (HELM PEPTIDE1{[dC].R.P.[Hyp].G.F.S.[dF].L.R}|PEPTIDE2{[dC].R.P.[Hyp].G.F.S.[dF].L.R}|CHEM1{[O=C1CC([*:1])C(=O)N1CCCCCCN1C(=O)CC([*:2])C1=O]}$PEPTIDE1,CHEM1,1:R3-1:R1|PEPTIDE2,CHEM1,1:R3-1:R2$$$V2.0)	316	100				
CC(C)C[C@H](NC(=O)[C@@H](Cc1ccccc1)NC(=O)[C@H](CSC1CC(=O)N(CCCCCCN2C(=O)CC(SC[C@H](NC(=O)[C@H](Cc3ccccc3)NC(=O)CNC(=O)[C@@H]3C[C@@H](O)CN3C(=O)[C@@H]3CCCN3C(=O)[C@H](CCCNC(=N)N)NC(=O)[C@H](N)CCCNC(=N)N)C(=O)N[C@H](Cc3ccccc3)C(=O)N[C@@H](CC(C)C)C(=O)N[C@@H](CCCNC(=N)N)C(=O)O)C2=O)C1=O)NC(=O)[C@H](Cc1ccccc1)NC(=O)CNC(=O)[C@@H]1C[C@@H](O)CN1C(=O)[C@@H]1CCCN1C(=O)[C@H](CCCNC(=N)N)NC(=O)[C@H](N)CCCNC(=N)N)C(=O)N[C@@H](CCCNC(=N)N)C(=O)O (stereo partly shown) [CP-0127] (HELM PEPTIDE1{[dR].R.P.[Hyp].G.F.C.[dF].L.R}|PEPTIDE2{[dR].R.P.[Hyp].G.F.C.[dF].L.R}|CHEM1{[O=C1CC([*:1])C(=O)N1CCCCCCN1C(=O)CC([*:2])C1=O]}$PEPTIDE1,CHEM1,7:R3-1:R1|PEPTIDE2,CHEM1,7:R3-1:R2$$$V2.0)		50	7.7	100	10	
NC(N)=NCCC[C@H](NC(=O)[C@H](Cc1ccccc1)NC(=O)[C@@H]1CCCN1C(=O)[C@H](CO)NC(=O)[C@H](Cc1ccccc1)NC(=O)CNC(=O)[C@@H]1CCCN1C(=O)[C@@H]1CCCN1C(=O)[C@@H](N)CCCN=C(N)N)C(=O)O [BK, Arg^1 -Pro^2 -Pro^3 -Gly^4 -Phe^5 -Ser^6 -Pro^7 -Phe^8 -Arg^9] (H-RPPGFSPFR-OH)						0.4
